Source: patent US20080176936A1, “Classes of Compounds that Interact with Integrins” (priority 2005, published 2008)

Tests used:
αVβ3 integrin = molecular target: T1, αVβ3 integrin (Homo sapiens, UniProt P05106+P06756); assay: ELISA: inhibition of binding of αVβ3 integrin (source WM-115 cell line) to coated extracellular matrix protein; conditions: WM-115 cell line as integrin source
T1 construct: the cell line WM-115 was used as a source of αVβ3 integrin; endogenous in cells; host or cells: WM-115 cell line
Method: (§1) An ELISA assay based on the published method of Bethert et al., 2000, J Biol Chem 275, 33308-23, was employed.
(§2) Briefly, appropriate microtitre plates were coated with either Fibrinogen or Vitronectin (10 μg/well). These extracellular matrix proteins contain the RGD amino acid sequence that is recognized by αllbβ3 integrin. Human platelet membrane preparations were used as a source of αllbβ3 integrin and the cell line WM-115 was used as a source of αVβ3 integrin. Inhibition of the binding of αllbβ3 integrin containing membrane preparations to the extracellular matrix protein was determined by pre-incubating the platelet membrane preparation with test or control compounds. The binding of the αllbβ3 integrin containing membrane was the quantitated by using a rabbit anti-integrinβ3 antibody, a horse radish peroxidase coupled second antibody and a standard colorimetric detection system.

αllbβ3 integrin = molecular target: T2, αllbβ3 integrin (Homo sapiens, UniProt P05106+P08514); assay: ELISA: inhibition of binding of αllbβ3 integrin membrane preparation to coated extracellular matrix protein; conditions: human platelet membrane preparation
T2 construct: Human platelet membrane preparations were used as a source of αllbβ3 integrin; from tissue; host or cells: human platelets (membrane preparation)
Method: as §1, §2

T2 sequence (P08514 32-887 limits assumed): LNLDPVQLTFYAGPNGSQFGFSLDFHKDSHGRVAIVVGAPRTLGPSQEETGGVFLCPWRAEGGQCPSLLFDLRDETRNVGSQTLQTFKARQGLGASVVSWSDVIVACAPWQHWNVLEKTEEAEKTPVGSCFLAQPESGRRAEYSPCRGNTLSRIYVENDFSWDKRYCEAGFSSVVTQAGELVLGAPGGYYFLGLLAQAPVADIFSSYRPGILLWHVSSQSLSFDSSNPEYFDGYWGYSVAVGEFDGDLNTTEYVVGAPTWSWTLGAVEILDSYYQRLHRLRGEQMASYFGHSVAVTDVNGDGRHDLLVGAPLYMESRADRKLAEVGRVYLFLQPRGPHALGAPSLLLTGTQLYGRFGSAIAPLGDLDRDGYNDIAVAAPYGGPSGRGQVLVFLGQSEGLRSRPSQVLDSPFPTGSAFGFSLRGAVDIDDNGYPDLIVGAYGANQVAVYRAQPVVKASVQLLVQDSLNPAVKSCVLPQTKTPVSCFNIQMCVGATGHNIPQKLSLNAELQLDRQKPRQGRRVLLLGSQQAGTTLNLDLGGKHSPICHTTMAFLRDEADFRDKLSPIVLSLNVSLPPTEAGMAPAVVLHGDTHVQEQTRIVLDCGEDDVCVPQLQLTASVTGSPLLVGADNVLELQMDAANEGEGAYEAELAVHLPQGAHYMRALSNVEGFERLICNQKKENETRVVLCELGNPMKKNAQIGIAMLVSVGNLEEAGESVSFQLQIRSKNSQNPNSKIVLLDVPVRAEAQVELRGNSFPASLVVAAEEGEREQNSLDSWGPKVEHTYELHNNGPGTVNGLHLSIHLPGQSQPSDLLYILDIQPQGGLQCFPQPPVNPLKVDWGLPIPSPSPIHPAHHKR
T2 sequence (P08514 891-1039 partner limits assumed): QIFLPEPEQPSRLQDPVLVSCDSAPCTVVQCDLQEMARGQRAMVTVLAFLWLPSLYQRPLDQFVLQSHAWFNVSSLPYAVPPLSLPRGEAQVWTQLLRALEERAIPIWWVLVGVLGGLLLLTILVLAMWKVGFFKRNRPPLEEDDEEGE
T2 sequence (P05106 27-788): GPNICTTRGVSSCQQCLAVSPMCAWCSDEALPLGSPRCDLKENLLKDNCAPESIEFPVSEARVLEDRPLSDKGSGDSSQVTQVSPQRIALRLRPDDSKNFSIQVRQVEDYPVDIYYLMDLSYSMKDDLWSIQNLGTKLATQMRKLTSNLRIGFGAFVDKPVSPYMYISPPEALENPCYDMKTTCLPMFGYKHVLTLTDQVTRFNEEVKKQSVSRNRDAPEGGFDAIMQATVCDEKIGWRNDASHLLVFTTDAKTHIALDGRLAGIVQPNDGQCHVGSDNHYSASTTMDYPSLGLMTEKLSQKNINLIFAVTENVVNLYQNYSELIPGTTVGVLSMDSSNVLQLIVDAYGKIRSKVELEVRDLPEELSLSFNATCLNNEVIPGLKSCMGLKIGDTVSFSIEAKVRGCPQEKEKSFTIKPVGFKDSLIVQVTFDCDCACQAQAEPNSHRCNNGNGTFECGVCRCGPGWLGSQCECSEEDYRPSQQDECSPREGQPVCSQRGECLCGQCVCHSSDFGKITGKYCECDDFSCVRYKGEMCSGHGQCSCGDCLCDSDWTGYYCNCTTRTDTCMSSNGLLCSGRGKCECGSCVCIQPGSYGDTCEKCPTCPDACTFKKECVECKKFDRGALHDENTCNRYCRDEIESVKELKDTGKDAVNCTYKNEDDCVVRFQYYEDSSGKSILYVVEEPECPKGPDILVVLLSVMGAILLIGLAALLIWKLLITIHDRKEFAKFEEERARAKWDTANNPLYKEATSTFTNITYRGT
T1 sequence (P06756 31-889 limits assumed): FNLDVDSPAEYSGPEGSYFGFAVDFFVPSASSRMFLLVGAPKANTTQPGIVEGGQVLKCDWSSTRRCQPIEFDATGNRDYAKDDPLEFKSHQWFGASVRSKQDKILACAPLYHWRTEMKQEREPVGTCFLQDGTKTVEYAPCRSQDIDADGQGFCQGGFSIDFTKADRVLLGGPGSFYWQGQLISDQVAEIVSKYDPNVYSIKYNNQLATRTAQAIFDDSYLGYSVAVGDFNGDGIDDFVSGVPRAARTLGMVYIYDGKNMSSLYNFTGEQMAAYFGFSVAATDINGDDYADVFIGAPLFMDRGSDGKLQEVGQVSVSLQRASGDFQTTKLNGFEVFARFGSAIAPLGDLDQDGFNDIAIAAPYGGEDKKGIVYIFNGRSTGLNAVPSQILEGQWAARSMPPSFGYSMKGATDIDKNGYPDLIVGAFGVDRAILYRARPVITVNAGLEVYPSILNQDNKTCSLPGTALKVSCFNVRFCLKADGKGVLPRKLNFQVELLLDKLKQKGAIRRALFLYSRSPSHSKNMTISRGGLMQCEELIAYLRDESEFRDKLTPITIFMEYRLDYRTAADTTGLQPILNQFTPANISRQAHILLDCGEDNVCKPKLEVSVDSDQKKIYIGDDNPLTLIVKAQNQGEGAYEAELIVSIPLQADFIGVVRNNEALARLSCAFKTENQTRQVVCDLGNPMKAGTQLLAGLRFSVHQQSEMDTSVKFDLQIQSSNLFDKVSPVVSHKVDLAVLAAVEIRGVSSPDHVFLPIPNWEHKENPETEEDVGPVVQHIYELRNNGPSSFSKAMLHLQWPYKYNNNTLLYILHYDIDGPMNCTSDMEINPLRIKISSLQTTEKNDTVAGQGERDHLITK
T1 sequence (P06756 891-1048 partner limits assumed): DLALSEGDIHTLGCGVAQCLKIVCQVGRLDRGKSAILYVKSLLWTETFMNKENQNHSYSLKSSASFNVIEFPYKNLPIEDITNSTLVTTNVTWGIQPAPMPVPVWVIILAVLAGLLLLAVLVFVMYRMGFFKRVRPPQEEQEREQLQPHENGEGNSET
T1 sequence (P05106 27-788): as the sequence (P05106 27-788) above

| SMILES | INHIBITION 250 uM RECEPTOR aVb3 SUBSTRATE FIBRINOGEN (αVβ3 integrin) | INHIBITION @ 250 uM RECEPTOR allBb3 SUBSTRATE FIBRINOGEN (αllbβ3 integrin) | INHIBITION 250 uM RECEPTOR allBb3 SUBSTRATE VITRONECTIN (αllbβ3 integrin) |
| --- | --- | --- | --- |
| COC1OC(COCC(=O)O)C(O)C(OCc2cccc(N)c2)C1NC(=O)c1ccccc1 (single isomer, unassigned) [Compound 28] | +++ (81% to 100% inhibition at 250 micromolar) | + (36% to 60% inhibition at 250 micromolar) | +++ (81% to 100% inhibition at 250 micromolar) |
| CCOC1C(O)C(COCc2ccc(C(=O)O)cc2)OC(OCc2ccccc2)C1NC(=O)CCNC(=N)N (single isomer, unassigned) [Compound 86] | − (0% to 35% inhibition at 250 micromolar) | − (0% to 35% inhibition at 250 micromolar) | +++ (81% to 100% inhibition at 250 micromolar) |
| CCOC1O[C@H](COCc2ccc(Br)cc2)[C@@H](O)[C@H](OCC(=O)O)[C@H]1NC(=O)CCNC(=N)N (single isomer, unassigned) [Compound 50] | +++ (81% to 100% inhibition at 250 micromolar) | + (36% to 60% inhibition at 250 micromolar) | +++ (81% to 100% inhibition at 250 micromolar) |
| COC1OC(COCc2ccccc2)C(O)C(OCc2ccc(C(=O)O)cc2)C1NC(=O)CCNC(=N)N (single isomer, unassigned) [Compound 11] | + (36% to 60% inhibition at 250 micromolar) | + (36% to 60% inhibition at 250 micromolar) | +++ (81% to 100% inhibition at 250 micromolar) |
| CCOCC1OC(OCc2ccccc2)C(NC(=O)c2ccc(C(=O)O)cc2)C(OCc2cccc(N)c2)C1O (single isomer, unassigned) [Compound 108] | − (0% to 35% inhibition at 250 micromolar) | − (0% to 35% inhibition at 250 micromolar) | +++ (81% to 100% inhibition at 250 micromolar) |
| CCOCC1OC(OCc2ccccc2)C(NC(=O)CCNC(=N)N)C(OCC(=O)O)C1O (single isomer, unassigned) [Compound 92] | ++ (61% to 80% inhibition at 250 micromolar) | + (36% to 60% inhibition at 250 micromolar) | +++ (81% to 100% inhibition at 250 micromolar) |
| COC1O[C@H](COCc2ccc(C(=O)O)cc2)[C@@H](O)[C@H](OCc2cccc(N)c2)[C@H]1NC(=O)c1ccc(Cl)cc1 (single isomer, unassigned) [Compound 31] | +++ (81% to 100% inhibition at 250 micromolar) | +++ (81% to 100% inhibition at 250 micromolar) | +++ (81% to 100% inhibition at 250 micromolar) |
| Nc1cccc(C(=O)N[C@H]2C(O)O[C@H](COCC(=O)O)[C@@H](O)[C@@H]2OCc2ccccc2)c1 (single isomer, unassigned) [Compound 33] | − (0% to 35% inhibition at 250 micromolar) | ++ (61% to 80% inhibition at 250 micromolar) | − (0% to 35% inhibition at 250 micromolar) |
| CCOC1O[C@H](COCc2cccc(N)c2)[C@@H](O)[C@H](OCc2ccc(Br)cc2)[C@H]1NC(=O)CCC(=O)O (single isomer, unassigned) [Compound 45] | +++ (81% to 100% inhibition at 250 micromolar) | ++ (61% to 80% inhibition at 250 micromolar) | +++ (81% to 100% inhibition at 250 micromolar) |
| CCOC1OC(COCC(=O)O)C(O)C(OCc2ccccc2)C1NC(=O)CCN (single isomer, unassigned) [Compound 120] | − (0% to 35% inhibition at 250 micromolar) | + (36% to 60% inhibition at 250 micromolar) | + (36% to 60% inhibition at 250 micromolar) |
| COC1OC(COCc2ccc(Br)cc2)C(O)C(OCc2cccc(N)c2)C1NC(=O)CCC(=O)O (single isomer, unassigned) [Compound 24] | ++ (61% to 80% inhibition at 250 micromolar) | + (36% to 60% inhibition at 250 micromolar) | +++ (81% to 100% inhibition at 250 micromolar) |
| CCOCC1OC(OCc2ccccc2)C(NC(=O)c2cccc(N)c2)C(OCc2ccc(C(=O)O)cc2)C1O (single isomer, unassigned) [Compound 99] | − (0% to 35% inhibition at 250 micromolar) | − (0% to 35% inhibition at 250 micromolar) | ++ (61% to 80% inhibition at 250 micromolar) |
| COC1OC(COCc2cccc(N)c2)C(O)C(OCC(=O)O)C1NC(=O)c1ccc(Cl)cc1 (single isomer, unassigned) [Compound 10] | +++ (81% to 100% inhibition at 250 micromolar) | ++ (61% to 80% inhibition at 250 micromolar) | +++ (81% to 100% inhibition at 250 micromolar) |
| CCC(=O)NC1C(OCc2ccccc2)OC(COCc2cccc(N)c2)C(O)C1OCc1ccc(C(=O)O)cc1 (single isomer, unassigned) [Compound 103] | +++ (81% to 100% inhibition at 250 micromolar) | ++ (61% to 80% inhibition at 250 micromolar) | +++ (81% to 100% inhibition at 250 micromolar) |
| CCOC1OC(COCc2ccccc2)C(O)C(OCc2cccc(N)c2)C1NC(=O)c1ccc(C(=O)O)cc1 (single isomer, unassigned) [Compound 69] | +++ (81% to 100% inhibition at 250 micromolar) | − (0% to 35% inhibition at 250 micromolar) | +++ (81% to 100% inhibition at 250 micromolar) |
| CCOC1OC(COCc2ccc(C(=O)O)cc2)C(O)C(OCc2cccc(N)c2)C1NC(=O)c1ccc(Cl)cc1 (single isomer, unassigned) [Compound 79] | +++ (81% to 100% inhibition at 250 micromolar) | + (36% to 60% inhibition at 250 micromolar) | +++ (81% to 100% inhibition at 250 micromolar) |
| COC1OC(COCc2ccccc2)C(O)C(OCC(=O)O)C1NC(=O)c1cccc(N)c1 (single isomer, unassigned) [Compound 5] | ++ (61% to 80% inhibition at 250 micromolar) | ++ (61% to 80% inhibition at 250 micromolar) | +++ (81% to 100% inhibition at 250 micromolar) |
| N=C(N)NCCC(=O)N[C@H]1C(O)O[C@H](COCc2ccc(Br)cc2)[C@@H](O)[C@@H]1OCc1ccc(C(=O)O)cc1 (single isomer, unassigned) [Compound 63] | − (0% to 35% inhibition at 250 micromolar) | ++ (61% to 80% inhibition at 250 micromolar) | +++ (81% to 100% inhibition at 250 micromolar) |
| CCOC1O[C@H](COCc2ccc(Br)cc2)[C@@H](O)[C@H](OCc2ccc(C(=O)O)cc2)[C@H]1NC(=O)CCNC(=N)N (single isomer, unassigned) [Compound 60] | +++ (81% to 100% inhibition at 250 micromolar) | + (36% to 60% inhibition at 250 micromolar) | +++ (81% to 100% inhibition at 250 micromolar) |
| CCOC1O[C@H](COCc2ccccc2)[C@@H](O)[C@H](OCc2ccc(C(=O)O)cc2)[C@H]1NC(=O)CCNC(=N)N (single isomer, unassigned) [Compound 57] | +++ (81% to 100% inhibition at 250 micromolar) | − (0% to 35% inhibition at 250 micromolar) | +++ (81% to 100% inhibition at 250 micromolar) |
| CCOC1C(O)C(COCc2cccc(N)c2)OC(OCc2ccccc2)C1NC(=O)CCC(=O)O (single isomer, unassigned) [Compound 89] | + (36% to 60% inhibition at 250 micromolar) | − (0% to 35% inhibition at 250 micromolar) | +++ (81% to 100% inhibition at 250 micromolar) |
| CCOC1O[C@H](COCc2ccccc2)[C@@H](O)[C@H](OCC(=O)O)[C@H]1NC(=O)CCNC(=N)N (single isomer, unassigned) [Compound 48] | +++ (81% to 100% inhibition at 250 micromolar) | ++ (61% to 80% inhibition at 250 micromolar) | +++ (81% to 100% inhibition at 250 micromolar) |
| CC(=O)NC1C(OCc2ccccc2)OC(COCc2cccc(N)c2)C(O)C1OCC(=O)O (single isomer, unassigned) [Compound 96] | − (0% to 35% inhibition at 250 micromolar) | − (0% to 35% inhibition at 250 micromolar) | + (36% to 60% inhibition at 250 micromolar) |
